From publication PMC7468280 (Scientific Reports, 2020)
Entries after “also recorded” stand apart in the source; their conditions may differ. Where two headings read alike, the source gives them in different places. Positions of bridges follow the written chain, without caps; N, C: chain ends. Non-standard residues stand in square brackets, D forms with d. Residues, ends and D or L forms follow the SMILES beside them. No end group written: not given here.

How the values were obtained:
Stability in human serum = format: in vitro ADME; conditions: 1 mg/ml peptide, 90% human serum in HBSS, 37 °C, HPLC at 220 nm, three replicates (b16 says human plasma)
Experimental: Figure 3 Representation of the percentage of peptide that remains in solution with respect to the initial one at different times. The percentage is calculated by dividing the area (HPLC analysis) at time “t” by the initial area of the peptide in the test conditions. Bar errors represents SEM of three replicates. Software GraphPad Prism 5.0 (https://graphpad-prism.software.informer.com/5.0/) was used.
The stability of E1P47 peptides was studied in human serum, a protease-rich media. Briefly, a concentration of 1 mg/ml of each peptide was incubated with 90% human serum in Hanks Balanced Salt Solution (HBSS) at 37 °C and aliquots of 40 µl were taken at different time-points during 24 h and treated with 200 µl of methanol to immediately precipitate the serum proteins. After 30 min of centrifugation at 4 °C, the supernatant was analysed by HPLC at 220 nm to calculate the content of intact peptide in each sample and by UPLC/MS to identify the main metabolites generated after the enzymatic hydrolysis.

HIV-1BaL [1] = conditions: read-out: IC50 against HIV-1BaL, TZM-bl cells sustained, peptide 1 h before virus, 48 h culture in presence of drug (sustained), luciferase, mean ± SEM of three independent experiments in triplicate
HIV-1BaL [2] = conditions: human colorectal explants, p24 ELISA, mean ± SEM of three independent experiments in triplicate
[3] = 90% human serum in Hanks Balanced Salt Solution (HBSS); conditions: 37 °C, up to 24 h
[4] = read-out: IC50 against HIV-1BaL, colorectal explants pulse, peptide 1 h before and 2 h during virus (3 h pulse), washed, 15 days culture without drug
[5] = read-out: IC50 against HIV-1BaL, colorectal explants sustained, peptide before and during virus and throughout 15 days culture (sustained)

| cleaved bond [3] | not cleaved [3] | Molecule | metabolised at 8 h, 1 mg/ml (Stability in human serum; 8 h, methanol precipitation, read-out: peptide degraded at 8 h) | IC50 (HIV-1BaL [1]) | IC50 (HIV-1BaL [2]; [4]) | IC50 (HIV-1BaL [2]; [5]) | stability to human plasma/serum proteases (in words) (Stability in human serum; up to 24 h) |
| --- | --- | --- | --- | --- | --- | --- | --- |
| – | – | CC[C@H](C)[C@H](NC(=O)[C@@H](NC(=O)CNC(=O)[C@H](CCCNC(=N)N)NC(=O)[C@H](Cc1c[nH]c2ccccc12)NC(=O)[C@H](Cc1ccccc1)NC(=O)[C@H](CC(=O)O)NC(=O)[C@H](Cc1ccccc1)NC(=O)[C@@H]1CCCN1C(=O)[C@@H](NC(=O)[C@H](CCCCN)NC(=O)[C@H](Cc1c[nH]c2ccccc12)NC(=O)[C@H](CC(C)C)NC(=O)[C@H](Cc1ccc(O)cc1)NC(=O)[C@H](CCC(=O)O)NC(=O)[C@H](CC(C)C)NC(=O)[C@@H](NC(=O)[C@@H](N)Cc1c[nH]c2ccccc12)[C@@H](C)CC)C(C)C)C(C)C)C(N)=O [E1P47] (H-WILEYLWKVPFDFWRGVI-NH2) | ~50% | 0.76 ± 0.08 µM | 38.5 ± 17.2 µM | 8 ± 4.6 µM | – |
| – | – | CC[C@@H](C)[C@@H](N)C(=O)N[C@@H](C(=O)NCC(=O)N[C@H](CCCNC(=N)N)C(=O)N[C@H](Cc1c[nH]c2ccccc12)C(=O)N[C@H](Cc1ccccc1)C(=O)N[C@H](CC(=O)O)C(=O)N[C@H](Cc1ccccc1)C(=O)N1CCC[C@@H]1C(=O)N[C@@H](C(=O)N[C@H](CCCCN)C(=O)N[C@H](Cc1c[nH]c2ccccc12)C(=O)N[C@H](CC(C)C)C(=O)N[C@H](Cc1ccc(O)cc1)C(=O)N[C@H](CCC(=O)O)C(=O)N[C@H](CC(C)C)C(=O)N[C@@H](C(=O)N[C@H](Cc1c[nH]c2ccccc12)C(N)=O)[C@H](C)CC)C(C)C)C(C)C [RE-E1P47] (H-[dI][dV]G[dR][dW][dF][dD][dF][dP][dV][dK][dW][dL][dY][dE][dL][dI][dW]-NH2) | – | – | 28.7 ± 23.2 µM | 3.7 ± 1.7 µM | remained practically unaltered for almost 24 h |
| – | – | CC[C@H](C)[C@H](NC(=O)[C@@H](NC(=O)CNC(=O)[C@@H]1CCCCNC(=O)C[C@H](NC(=O)[C@H](Cc2ccccc2)NC(=O)[C@@H]2CCCN2C(=O)[C@@H](NC(=O)[C@H](CCCCN)NC(=O)[C@H](Cc2c[nH]c3ccccc23)NC(=O)[C@H](CC(C)C)NC(=O)[C@H](Cc2ccc(O)cc2)NC(=O)[C@H](CCC(=O)O)NC(=O)[C@H](CC(C)C)NC(=O)[C@@H](NC(=O)[C@@H](N)Cc2c[nH]c3ccccc23)[C@@H](C)CC)C(C)C)C(=O)N[C@@H](Cc2ccccc2)C(=O)N[C@@H](Cc2c[nH]c3ccccc23)C(=O)N1)C(C)C)C(N)=O [StP1-E1P47] (H-WILEYLWKVPFDFWKGVI-NH2; lactam 12-15) | – | 0.11 ± 0.01 µM | 33 ± 27.4 µM | 2.8 ± 0.5 µM | – |
| – | – | CC[C@H](C)[C@H](NC(=O)[C@@H](NC(=O)CNC(=O)[C@H](CCCNC(=N)N)NC(=O)[C@H](Cc1c[nH]c2ccccc12)NC(=O)[C@H](Cc1ccccc1)NC(=O)[C@H](CC(=O)O)NC(=O)[C@H](Cc1ccccc1)NC(=O)[C@@H]1CCCN1C(=O)[C@@H](NC(=O)[C@@H]1CCCCNC(=O)CC[C@H](NC(=O)[C@H](CC(C)C)NC(=O)[C@@H](NC(=O)[C@@H](N)Cc2c[nH]c3ccccc23)[C@@H](C)CC)C(=O)N[C@@H](Cc2ccc(O)cc2)C(=O)N[C@@H](CC(C)C)C(=O)N[C@@H](Cc2c[nH]c3ccccc23)C(=O)N1)C(C)C)C(C)C)C(N)=O [StP2-E1P47] (H-WILEYLWKVPFDFWRGVI-NH2; lactam 4-8) | – | 0.16 ± 0.01 µM | 32 ± 15.5 µM | 2.9 ± 0.4 µM | – |
| Trp7-K8, major | intact | WILEYLWKVPFDFWKGVI-NH2 | – | – | – | – | – |
| Phe11-D12, major | intact | WILEYLWKVPFDFWRGVI-NH2 | – | – | – | – | – |

| Molecule | cleaved bond [3] | not cleaved [3] | metabolised at 8 h, 1 mg/ml (Stability in human serum; 8 h, methanol precipitation, read-out: peptide degraded at 8 h) | IC50 (HIV-1BaL [1]) | IC50 (HIV-1BaL [2]; [4]) | IC50 (HIV-1BaL [2]; [5]) | stability to human plasma/serum proteases (in words) (Stability in human serum; up to 24 h) |
| --- | --- | --- | --- | --- | --- | --- | --- |
| WILEYLWKVPFDFWRGVI | Glu4-Y5, major; also recorded: Gly16-V17, major; also recorded: Trp1-I2, major; also recorded: Phe11-D12, major; also recorded: Trp7-K8, major | – | – | – | – | – | – |
